The text below walks through data of US10124004B2, “Pyrido[3,4-d]pyrimidine derivative and pharmaceutically acceptable salt thereof” (Teijin Pharma Limited, priority 2015, dated 2018).

The target in one test is T1, CDK4/cyclin D3 (Homo sapiens, UniProt P11802).
T1 construct: purchased Carna Biosciences, Inc. QS S Assist CDK4/Cyclin D3_FP Kit
Briefly: Human CDK4/cyclin D3 inhibitory activity (QS S Assist CDK4/Cyclin D3_FP Kit, IMAP fluorescence polarization). Format: biochemical. To be noted: 50% inhibitory concentration against CDK4/cyclin D3, given as class symbol. The essentials: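 IMAP fluorescence-polarization kinase assay with kit ATP/substrate/metal mix and 12.5 to 25 ng/well enzyme in 20 mM HEPES pH 7.4, 0.01% Tween20, 2 mM DTT. Reaction ran 45 min at room temperature, then binding reagent was added for 30 min in the dark. IC50 was taken from dose-response fits of percent inhibition.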
On the technique in general: Polarisation of emitted light reports the rotation of a fluorescent probe.

Another test has as its target T2, CDK2/cyclin A2 (Homo sapiens, UniProt P24941).
T2 construct: purchased Carna Biosciences, Inc. QS S Assist CDK2/Cyclin A2_FP Kit
Briefly: Human CDK2/cyclin A2 inhibitory activity (QS S Assist CDK2/Cyclin A2_FP Kit, IMAP fluorescence polarization). Format: biochemical. The following applies: 50% inhibitory concentration against CDK2/cyclin A2, given as class symbol. In short, it runs like this:
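Kinase activity read as fluorescence polarization (485/535 nm) after phosphorylated fluorescent substrate binds IMAP reagent (30 min, RT, dark). Enzyme (2.5 ng/well) reacted 60 min at RT with ATP/substrate/metal in HEPES pH 7.4 buffer with Tween 20 and DTT; no-enzyme wells define 0% activity; IC50 by curve fit.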

T1 sequence (P11802 whole entry): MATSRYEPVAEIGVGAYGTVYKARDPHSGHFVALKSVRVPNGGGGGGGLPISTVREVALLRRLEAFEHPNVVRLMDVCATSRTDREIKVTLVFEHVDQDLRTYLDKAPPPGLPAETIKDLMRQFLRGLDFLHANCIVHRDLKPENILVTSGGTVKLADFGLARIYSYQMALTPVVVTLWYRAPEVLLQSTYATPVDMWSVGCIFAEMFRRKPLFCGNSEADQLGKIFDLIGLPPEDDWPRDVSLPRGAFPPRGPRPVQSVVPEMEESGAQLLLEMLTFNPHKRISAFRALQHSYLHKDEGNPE
T1 sequence (P30281 whole entry partner): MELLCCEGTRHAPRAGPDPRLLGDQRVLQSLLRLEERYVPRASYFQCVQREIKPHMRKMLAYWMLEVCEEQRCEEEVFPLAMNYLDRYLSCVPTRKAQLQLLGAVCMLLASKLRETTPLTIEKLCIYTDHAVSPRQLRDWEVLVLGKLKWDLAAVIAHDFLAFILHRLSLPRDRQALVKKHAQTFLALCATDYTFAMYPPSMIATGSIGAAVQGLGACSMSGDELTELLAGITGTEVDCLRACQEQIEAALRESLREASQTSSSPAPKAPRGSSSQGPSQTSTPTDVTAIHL

`CC(C)Nc1nc([C@@H](C)O)cc2cnc(Nc3ccc(N4CC[C@H](O)C4)nn3)nc12` [Compound 662]: the IC50 (commonly the midpoint of a concentration-inhibition curve) was under 10 nM on CDK4/cyclin D3 and at least 100 nM on CDK2/cyclin A2.
On the same counts, the results for `CC(C)Nc1nc([C@@H](C)O)cc2cnc(Nc3ccc(N4CCC(CO)C4)nn3)nc12` (stereo partly drawn) [Compound 663] are under 10 nM and at least 100 nM.
On the same counts, the results for `CC(C)Nc1nc([C@@H](C)O)cc2cnc(Nc3ccc(N4CCC(O)C(C)(C)C4)nn3)nc12` (stereo partly drawn) [Compound 664] are under 10 nM and at least 100 nM.
On the same counts, the results for `CC(C)Nc1nc([C@@H](C)O)cc2cnc(Nc3ccc(N4CCNCC(C)C4=O)cn3)nc12` (stereo partly drawn) [Compound 665] are under 10 nM and at least 100 nM.
As for `CC(C)Nc1nc([C@@H](C)O)cc2cnc(Nc3ccc(N4CC(O)C4)nn3)nc12` [Compound 666], the values for the half-maximal inhibitory concentration (IC50) at CDK4/cyclin D3 and at CDK2/cyclin A2 were under 10 nM and at least 100 nM, respectively.
The like results for `CC(C)Nc1nc([C@@H](C)O)cc2cnc(Nc3ccc(N4CC(CO)C4)nn3)nc12` [Compound 667] were, in that order, under 10 nM and at least 100 nM.
On the same counts, the results for `CC(C)Nc1nc([C@@H](C)O)cc2cnc(Nc3ccc(N4CC(C)(CO)C4)nn3)nc12` [Compound 668] are under 10 nM and at least 100 nM.
On the same counts, the results for `CC(C)Nc1nc([C@@H](C)O)cc2cnc(Nc3ccc(CC(=O)N4CCNC5(CC5)C4)cn3)nc12` [Compound 669] are 10 to 100 nM and at least 100 nM.
For `CC(C)Nc1nc(C2CCCO2)cc2cnc(Nc3ccc(N4CCNCC4=O)cn3)nc12` (stereo not drawn) [Compound 670], the half-inhibitory concentration (IC50) against CDK4/cyclin D3 and against CDK2/cyclin A2 was at least 100 nM each time.
Turning to `CC(C)Nc1nc(C(C)O)cc2cnc(Nc3ccc(OC4CNCC4F)cn3)nc12` (stereo not drawn) [Compound 673], the results for the half-maximal inhibitory concentration (IC50) at CDK4/cyclin D3 and on CDK2/cyclin A2 were under 10 nM and at least 100 nM, respectively.
On the same counts, the results for `CC(C)Nc1nc([C@@H](C)O)cc2cnc(Nc3ccc(CN4CCN(C[C@H](C)O)CC4)cn3)nc12` [Compound 674] are under 10 nM and at least 100 nM.
The like results for `CC(C)Nc1nc([C@@H](C)O)cc2cnc(Nc3ccc(CN4CCN(C[C@@H](C)O)CC4)cn3)nc12` [Compound 675] were, in that order, under 10 nM and at least 100 nM.
With `CC(C)Nc1nc([C@@H](C)O)cc2cnc(Nc3ccc(N4CCN(C[C@H](C)O)CC4)nn3)nc12` [Compound 676, (S)-1-(4-(6-((6-((R)-1-hydroxyethyl)-8-(isopropylamino)pyrido[3,4-d]pyrimidin-2-yl)amino)pyridazin-3-yl)piperazin-1-yl)propan-2-ol], the results for the IC50 at CDK4/cyclin D3 and on CDK2/cyclin A2 were under 10 nM and at least 100 nM, respectively.
As for `CC(C)Nc1nc([C@@H](C)O)cc2cnc(Nc3ccc(N4CCN(C[C@@H](C)O)CC4)nn3)nc12` [Compound 677], the IC50 on CDK4/cyclin D3 was under 10 nM; on CDK2/cyclin A2, at least 100 nM.
The like results for `CO[C@H](C)c1cc2cnc(Nc3ccc(N4CCN(C(C)(C)C(=O)O)CC4)nn3)nc2c(NC(C)C)n1` [Compound 678, (R)-2-(4-(6-((8-(isopropylamino)-6-(1-methoxyethyl)pyrido[3,4-d]pyrimidin-2-yl)amino)pyridazin-3-yl)piperazin-1-yl)-2-methylpropanoic acid] were, in that order, 10 to 100 nM and at least 100 nM.
On the same counts, the results for `CO[C@H](C)c1cc2cnc(Nc3ccc(CN4CCN(C(C)(C)C(=O)O)CC4)cn3)nc2c(NC(C)C)n1` [Compound 679] are 10 to 100 nM and at least 100 nM.
`CO[C@H](C)c1cc2cnc(Nc3ccc(N4CCN(C5COC5)CC4)nn3)nc2c(NC(C)C)n1` [Compound 680]: the IC50 against CDK4/cyclin D3 is 10 to 100 nM; at CDK2/cyclin A2 it was at least 100 nM.
The like results for `CO[C@H](C)c1cc2cnc(Nc3ccc(CN4CCN(C5COC5)CC4)cn3)nc2c(NC(C)C)n1` [Compound 681] were, in that order, 10 to 100 nM and at least 100 nM.
Take `CC(C)Nc1nc([C@@H](C)O)cc2cnc(Nc3ccc(N4CCN(C5COC5)CC4)nn3)nc12` [Compound 682, (R)-1-(8-(isopropylamino)-2-((6-(4-(oxetan-3-yl)piperazin-1-yl)pyridazin-3-yl)amino)pyrido[3,4-d]pyrimidin-6-yl)ethanol]: the concentration for half-maximal inhibition (IC50) against CDK4/cyclin D3 was under 10 nM; at CDK2/cyclin A2 it was at least 100 nM.
The like results for `CC(C)Nc1nc([C@@H](C)O)cc2cnc(Nc3ccc(CN4CCN(C5COC5)CC4)cn3)nc12` [Compound 683] were, in that order, under 10 nM and at least 100 nM.
As for `CC(C)Nc1nc([C@@H](C)O)cc2cnc(Nc3ccc(C4CCCNC(C)C4=O)cn3)nc12` (stereo partly drawn) [Compound 686], the IC50 is under 10 nM against CDK4/cyclin D3 and at least 100 nM against CDK2/cyclin A2.
`C[C@@H](O)c1cc2cnc(Nc3ccc(N4CCNCC4=O)cn3)nc2c(NCC2CCCOC2)n1` (stereo partly drawn) [Compound 691]: the values for the half-inhibitory concentration (IC50) against CDK4/cyclin D3 and against CDK2/cyclin A2 were under 10 nM and at least 100 nM, respectively.
On the same counts, the results for `C[C@@H](O)c1cc2cnc(Nc3ccc(N4CCNCC4=O)cn3)nc2c(NC2CCOC(C)(C)C2)n1` (stereo partly drawn) [Compound 692] are under 10 nM and at least 100 nM.
The like results for `CC(C)Nc1nc([C@@H](C)O)cc2cnc(Nc3ccc4c(n3)CCNC4)nc12` [Compound 693] were, in that order, under 10 nM and at least 100 nM.
On the same counts, the results for `CC(C)Nc1nc([C@@H](C)O)cc2cnc(Nc3cc4c(cn3)CNCC4)nc12` [Compound 694] are 10 to 100 nM and at least 100 nM.
Take `CC(C)Nc1nc([C@@H](C)O)cc2cnc(Nc3ccc4c(n3)CNC4)nc12` [Compound 695]: the IC50 against CDK4/cyclin D3 is under 10 nM; on CDK2/cyclin A2, at least 100 nM.
With `CO[C@H](C)c1cc2cnc(Nc3ccc(N4CC5(CCN5)C4)nn3)nc2c(NC(C)C)n1` [Compound 696], the values for the IC50 against CDK4/cyclin D3 and at CDK2/cyclin A2 were under 10 nM and at least 100 nM, respectively.
On the same counts, the results for `CC(C)Nc1nc([C@H](C)F)cc2cnc(Nc3ccc(N4CCNCC4)nn3)nc12` [Compound 698] are under 10 nM and at least 100 nM.
The like results for `CC(C)Nc1nc([C@@H](C)O)cc2cnc(Nc3ccc(CN4CCN(C(C)(C)CO)CC4)cn3)nc12` [Compound 700] were, in that order, under 10 nM and at least 100 nM.
On the same counts, the results for `CC(C)Nc1nc([C@@H](C)O)cc2cnc(Nc3ccc(N4CCN(C(C)(C)CO)CC4)nn3)nc12` [Compound 701] are under 10 nM and at least 100 nM.
Turning to `CC(C)Nc1nc([C@@H](C)O)cc2cnc(Nc3ccc(N4CCC(OCC(=O)O)CC4)nn3)nc12` [Compound 702], the IC50 against CDK4/cyclin D3 was 10 to 100 nM; against CDK2/cyclin A2 it was at least 100 nM.
On the same counts, the results for `CC(C)Nc1nc([C@@H](C)O)c(Cl)c2cnc(Nc3ccc(N4CCC(OCC(=O)O)CC4)nn3)nc12` [Compound 703] are 10 to 100 nM and at least 100 nM.
In the case of `CC(C)Nc1nc([C@@H](C)O)cc2cnc(Nc3ccc(C4CNCCO4)nn3)nc12` (stereo partly drawn) [Compound 706], the half-maximal inhibitory concentration (IC50) against CDK4/cyclin D3 is under 10 nM; against CDK2/cyclin A2, at least 100 nM.
For the compound `CC(C)Nc1nc(C(C)O)cc2cnc(Nc3ccc(OC4CCNCC4F)cn3)nc12` (stereo not drawn) [Compound 708], the half-inhibitory concentration (IC50) is under 10 nM against CDK4/cyclin D3 and at least 100 nM against CDK2/cyclin A2.
On to `CO[C@H](C)c1cc2cnc(Nc3ccc(N4CCNCC4)nn3)nc2c(NC(C)(C)C)n1` [Compound 709], for which the IC50 was under 10 nM against CDK4/cyclin D3 and at least 100 nM against CDK2/cyclin A2.
Regarding `CO[C@H](C)c1cc2cnc(Nc3ccc(N4CCNCC4)nn3)nc2c(NCC(C)(C)C)n1` [Compound 710], the 50% inhibitory concentration (IC50) at CDK4/cyclin D3 is under 10 nM; against CDK2/cyclin A2, at least 100 nM.
